Measured values published in ChEMBL document CHEMBL1240295, “Specificity and mechanism of action of some commonly used protein kinase inhibitors” (Biochem J, 2000).

Experiments:
[1] = molecular target: Glycogen synthase kinase-3 beta (Homo sapiens, UniProt P49841); settings: Sf21, at 10 µM
Description: Inhibition of His-tagged human GSK3b expressed in Sf21 cells at 10 uM

[2] = molecular target: T1, Serine/threonine-protein kinase Chk1 (Homo sapiens) (UniProt O14757); settings: at 10 µM
T1 sequence (whole entry): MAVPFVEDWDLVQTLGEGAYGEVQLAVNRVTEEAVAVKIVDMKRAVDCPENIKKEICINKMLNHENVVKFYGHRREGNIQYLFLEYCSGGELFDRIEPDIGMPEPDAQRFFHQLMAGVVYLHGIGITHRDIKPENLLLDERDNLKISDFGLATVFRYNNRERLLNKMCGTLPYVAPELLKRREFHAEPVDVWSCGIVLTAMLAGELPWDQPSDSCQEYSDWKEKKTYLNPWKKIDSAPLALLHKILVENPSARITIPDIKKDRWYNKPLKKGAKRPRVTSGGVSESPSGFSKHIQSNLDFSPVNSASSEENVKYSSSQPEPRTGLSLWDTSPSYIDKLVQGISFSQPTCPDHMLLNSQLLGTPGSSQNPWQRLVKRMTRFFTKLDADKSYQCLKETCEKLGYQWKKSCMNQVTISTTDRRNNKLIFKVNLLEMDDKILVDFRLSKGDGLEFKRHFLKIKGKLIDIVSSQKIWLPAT
Description: Inhibition of His-tagged human CHK1 expressed in Escherichia coli at 10 uM

[3] = molecular target: Protein kinase C alpha type (Homo sapiens, UniProt P17252); settings: at 10 µM
Description: Inhibition of His-tagged human PKCalpha expressed in Escherichia coli at 10 uM

[4] = molecular target: Serine/threonine-protein kinase N2 (Homo sapiens) (UniProt Q16513); experiment: Inhibition of His-tagged human PRK2 expressed in HEK293 cells at 10 uM; assay type: cell-based
[5] = molecular target: Mitogen-activated protein kinase 14 (Homo sapiens) (UniProt Q16539); settings: at 10 µM
Description: Inhibition of Gst-tagged human SAPK2a/p38 expressed in Escherichia coli at 10 uM

[6] = molecular target: T2, Mitogen-activated protein kinase 12 (Homo sapiens) (UniProt P53778); settings: at 10 µM
T2 sequence (whole entry): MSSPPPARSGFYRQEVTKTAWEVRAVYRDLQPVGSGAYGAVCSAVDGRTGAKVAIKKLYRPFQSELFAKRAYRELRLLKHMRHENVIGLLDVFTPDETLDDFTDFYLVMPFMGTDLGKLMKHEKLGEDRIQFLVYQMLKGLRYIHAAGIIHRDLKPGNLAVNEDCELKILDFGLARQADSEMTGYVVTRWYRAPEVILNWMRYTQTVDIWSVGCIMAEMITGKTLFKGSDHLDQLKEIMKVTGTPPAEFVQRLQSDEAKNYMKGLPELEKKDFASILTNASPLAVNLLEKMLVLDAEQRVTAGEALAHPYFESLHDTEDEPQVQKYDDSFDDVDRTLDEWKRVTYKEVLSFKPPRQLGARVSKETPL
Description: Inhibition of Gst-tagged human SAPK3/p38gamma expressed in Escherichia coli at 10 uM

[7] = molecular target: Mitogen-activated protein kinase 11 (Homo sapiens) (UniProt Q15759); settings: at 10 µM
Description: Inhibition of Gst-tagged human SAPK2b/p38--beta-2 expressed in Escherichia coli at 10 uM

[8] = molecular target: MAP kinase-activated protein kinase 2 (Homo sapiens, UniProt P49137); settings: at 10 µM
Description: Inhibition of Gst-tagged human MAPKAPK2 expressed in Escherichia coli at 10 uM

[9] = molecular target: T3, MAP kinase-activated protein kinase 5 (Homo sapiens) (UniProt Q8IW41); settings: Sf9, at 10 µM
T3 sequence (whole entry): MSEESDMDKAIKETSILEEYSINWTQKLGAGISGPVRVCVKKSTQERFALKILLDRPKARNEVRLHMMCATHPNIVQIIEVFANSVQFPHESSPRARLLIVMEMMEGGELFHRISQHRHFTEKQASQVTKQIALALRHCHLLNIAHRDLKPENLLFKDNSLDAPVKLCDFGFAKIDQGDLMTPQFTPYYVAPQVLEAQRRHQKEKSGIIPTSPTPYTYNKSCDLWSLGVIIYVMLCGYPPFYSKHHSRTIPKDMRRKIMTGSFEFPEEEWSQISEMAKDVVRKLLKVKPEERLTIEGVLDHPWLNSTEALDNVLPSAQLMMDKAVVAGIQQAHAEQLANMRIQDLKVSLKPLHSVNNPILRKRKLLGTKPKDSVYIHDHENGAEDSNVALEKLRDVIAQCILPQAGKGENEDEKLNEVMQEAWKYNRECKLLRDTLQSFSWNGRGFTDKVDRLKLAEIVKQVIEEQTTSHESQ
Description: Inhibition of His-tagged human PRAK expressed in Sf9 cells at 10 uM

Rattus norvegicus = species on record: Rattus norvegicus; settings: at 10 µM
Description: Inhibition of rat liver AMPK at 10 uM

[10] = molecular target: Casein kinase II (Homo sapiens) (UniProt P67870+P68400+P19784); settings: Sf9, at 10 µM
Description: Inhibition of His-tagged human CK2 expressed in Sf9 cells at 10 uM

[11] = Inhibition of PHK from rabbit skeletal muscle; assay type: tissue-based, Oryctolagus cuniculus, Muscle tissue
[12] = molecular target: T4, Mitogen-activated protein kinase 13 (Homo sapiens) (UniProt O15264); settings: at 10 µM
T4 sequence (whole entry): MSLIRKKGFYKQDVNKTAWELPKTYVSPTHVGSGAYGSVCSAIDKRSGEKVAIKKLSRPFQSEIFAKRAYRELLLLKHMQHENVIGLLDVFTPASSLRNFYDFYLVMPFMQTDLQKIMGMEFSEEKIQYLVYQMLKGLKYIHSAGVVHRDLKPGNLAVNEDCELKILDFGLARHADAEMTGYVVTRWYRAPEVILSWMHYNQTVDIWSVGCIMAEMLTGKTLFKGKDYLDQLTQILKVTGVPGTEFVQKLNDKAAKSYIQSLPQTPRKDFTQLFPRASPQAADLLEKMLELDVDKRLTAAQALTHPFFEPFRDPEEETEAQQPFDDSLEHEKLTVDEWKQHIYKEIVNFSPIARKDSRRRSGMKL
Description: Inhibition of Gst-tagged human SAPK4/p38delta expressed in Escherichia coli at 10 uM

[13] = molecular target: Rho-associated protein kinase 2 (Rattus norvegicus) (UniProt Q62868); settings: Sf9, at 10 µM
Description: Inhibition of rat ROCK2 expressed in Sf9 cells at 10 uM

[14] = molecular target: Ribosomal protein S6 kinase beta-1 (Homo sapiens, UniProt P23443); settings: at 10 µM
Description: Inhibition of His-tagged human S6K1 expressed in Escherichia coli at 10 uM

Bos taurus = species on record: Bos taurus; settings: at 10 µM
Description: Inhibition of bovine heart PKA at 10 uM

[15] = Inhibition of MAPKAPK1b from rabbit skeletal muscle; assay type: tissue-based, Oryctolagus cuniculus, Muscle tissue
[16] = molecular target: Mitogen-activated protein kinase 8 (Homo sapiens) (UniProt P45983); settings: at 10 µM
Description: Inhibition of Gst-tagged human JNK1a1 expressed in Escherichia coli at 10 uM

[17] = molecular target: Mitogen-activated protein kinase 1 (Homo sapiens) (UniProt P28482); settings: at 10 µM
Description: Inhibition of Gst-tagged human MAPK2/ERK2 expressed in Escherichia coli at 10 uM

[18] = molecular target: Ribosomal protein S6 kinase alpha-5 (Homo sapiens, UniProt O75582); settings: Sf9, at 10 µM
Description: Inhibition of His-tagged human MSK1 expressed in Sf9 cells at 10 uM

Oryctolagus cuniculus [19] = species on record: Oryctolagus cuniculus; settings: Muscle tissue, at 10 µM
Description: Inhibition of PHK from rabbit skeletal muscle at 10 uM

Oryctolagus cuniculus [20] = species on record: Oryctolagus cuniculus; settings: Muscle tissue, at 10 µM; remark: listed apart in the source
Description: Inhibition of MAPKAPK1b from rabbit skeletal muscle at 10 uM

[21] = molecular target: RAC-alpha serine/threonine-protein kinase (Homo sapiens) (UniProt P31749); settings: Sf9, at 10 µM
Description: Inhibition of human PKBalpha expressed in SF9 cells at 10 uM

[22] = molecular target: T5, Serine/threonine-protein kinase Sgk1 (Homo sapiens) (UniProt O00141); settings: Sf9, at 10 µM
T5 sequence (whole entry): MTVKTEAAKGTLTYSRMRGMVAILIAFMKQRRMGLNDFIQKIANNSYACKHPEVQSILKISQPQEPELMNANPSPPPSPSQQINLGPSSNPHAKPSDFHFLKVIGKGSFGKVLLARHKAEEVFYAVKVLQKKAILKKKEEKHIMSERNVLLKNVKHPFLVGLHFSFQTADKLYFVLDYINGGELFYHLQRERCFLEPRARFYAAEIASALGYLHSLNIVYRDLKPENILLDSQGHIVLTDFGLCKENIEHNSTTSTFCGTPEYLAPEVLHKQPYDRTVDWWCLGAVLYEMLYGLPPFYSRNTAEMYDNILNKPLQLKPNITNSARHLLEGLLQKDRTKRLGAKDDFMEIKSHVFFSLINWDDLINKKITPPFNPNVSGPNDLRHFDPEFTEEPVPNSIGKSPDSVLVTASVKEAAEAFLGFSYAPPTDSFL
Description: Inhibition of His-tagged human SGK expressed in Sf9 cells at 10 uM

Oryctolagus cuniculus [23] = species on record: Oryctolagus cuniculus; settings: at 10 µM
Description: Inhibition of rabbit MKK1 expressed in Escherichia coli at 10 uM

Mus musculus = species on record: Mus musculus; experiment: Inhibition of EGF-induced activation of MKK1 in mouse […] at 2 nM; assay type: cell-based
[24] = molecular target: Tyrosine-protein kinase Lck (Homo sapiens) (UniProt P06239); settings: Sf9, at 10 µM
Description: Inhibition of His-tagged human LCK expressed in Sf9 cells at 10 uM

Sequence of Mitogen-activated protein kinase 8 (Homo sapiens) (P45983 whole entry): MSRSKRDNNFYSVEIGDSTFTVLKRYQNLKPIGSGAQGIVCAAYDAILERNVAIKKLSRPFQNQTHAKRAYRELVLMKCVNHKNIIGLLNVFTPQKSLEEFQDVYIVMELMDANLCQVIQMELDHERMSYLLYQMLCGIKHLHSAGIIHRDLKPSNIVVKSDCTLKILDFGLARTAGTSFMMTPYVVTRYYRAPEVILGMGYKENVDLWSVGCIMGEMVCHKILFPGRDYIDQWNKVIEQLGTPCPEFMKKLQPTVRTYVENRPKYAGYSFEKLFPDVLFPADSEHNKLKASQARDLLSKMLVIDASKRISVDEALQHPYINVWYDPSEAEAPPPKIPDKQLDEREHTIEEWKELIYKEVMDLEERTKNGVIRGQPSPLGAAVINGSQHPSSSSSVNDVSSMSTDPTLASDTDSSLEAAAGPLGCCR
Sequence of RAC-alpha serine/threonine-protein kinase (Homo sapiens) (P31749 whole entry): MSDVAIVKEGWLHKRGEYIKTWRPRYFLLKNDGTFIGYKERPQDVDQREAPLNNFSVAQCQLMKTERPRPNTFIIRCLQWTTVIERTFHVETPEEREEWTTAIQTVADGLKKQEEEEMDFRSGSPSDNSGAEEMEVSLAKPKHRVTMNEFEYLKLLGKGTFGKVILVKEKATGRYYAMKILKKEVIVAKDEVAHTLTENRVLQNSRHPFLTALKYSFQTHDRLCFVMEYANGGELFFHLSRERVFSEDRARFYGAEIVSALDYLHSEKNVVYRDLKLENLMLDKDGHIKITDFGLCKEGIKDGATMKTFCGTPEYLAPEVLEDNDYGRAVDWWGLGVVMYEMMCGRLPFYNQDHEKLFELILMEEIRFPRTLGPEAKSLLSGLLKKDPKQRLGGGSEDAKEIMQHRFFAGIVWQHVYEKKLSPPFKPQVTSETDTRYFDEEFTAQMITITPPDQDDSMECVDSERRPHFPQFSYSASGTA
Sequence of Mitogen-activated protein kinase 14 (Homo sapiens) (Q16539 whole entry): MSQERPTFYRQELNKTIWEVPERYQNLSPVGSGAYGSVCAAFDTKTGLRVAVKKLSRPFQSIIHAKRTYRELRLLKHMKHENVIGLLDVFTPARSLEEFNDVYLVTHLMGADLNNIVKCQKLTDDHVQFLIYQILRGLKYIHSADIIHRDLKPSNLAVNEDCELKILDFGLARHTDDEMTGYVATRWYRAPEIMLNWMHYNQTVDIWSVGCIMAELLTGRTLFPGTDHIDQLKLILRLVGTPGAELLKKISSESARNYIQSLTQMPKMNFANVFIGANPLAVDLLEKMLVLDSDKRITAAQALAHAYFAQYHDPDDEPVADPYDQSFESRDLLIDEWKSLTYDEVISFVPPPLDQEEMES
Sequence of MAP kinase-activated protein kinase 2 (P49137 whole entry, looked up): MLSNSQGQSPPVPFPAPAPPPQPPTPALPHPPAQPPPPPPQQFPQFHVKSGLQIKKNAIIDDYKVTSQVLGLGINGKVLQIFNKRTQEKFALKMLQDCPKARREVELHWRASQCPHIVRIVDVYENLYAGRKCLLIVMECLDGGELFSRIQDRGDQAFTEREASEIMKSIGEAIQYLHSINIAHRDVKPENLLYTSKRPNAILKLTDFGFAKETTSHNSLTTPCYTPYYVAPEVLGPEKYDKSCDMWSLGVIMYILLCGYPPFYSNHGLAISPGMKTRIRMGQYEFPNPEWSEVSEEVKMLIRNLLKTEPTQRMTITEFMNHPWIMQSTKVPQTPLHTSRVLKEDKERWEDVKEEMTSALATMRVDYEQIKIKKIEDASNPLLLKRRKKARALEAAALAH
Sequence of Glycogen synthase kinase-3 beta (P49841 whole entry, looked up): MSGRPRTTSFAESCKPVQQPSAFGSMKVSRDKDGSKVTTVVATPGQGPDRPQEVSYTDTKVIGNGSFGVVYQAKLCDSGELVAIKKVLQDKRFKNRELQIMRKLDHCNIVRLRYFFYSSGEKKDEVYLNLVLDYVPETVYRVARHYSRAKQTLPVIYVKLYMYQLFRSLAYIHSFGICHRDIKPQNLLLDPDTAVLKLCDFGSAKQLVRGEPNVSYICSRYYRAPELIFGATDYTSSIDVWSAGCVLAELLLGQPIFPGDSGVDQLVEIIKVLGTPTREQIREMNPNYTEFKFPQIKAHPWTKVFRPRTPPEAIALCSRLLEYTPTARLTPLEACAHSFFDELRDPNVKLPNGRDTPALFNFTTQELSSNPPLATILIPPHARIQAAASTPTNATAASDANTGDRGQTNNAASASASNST
Sequence of Ribosomal protein S6 kinase alpha-5 (O75582 whole entry, looked up): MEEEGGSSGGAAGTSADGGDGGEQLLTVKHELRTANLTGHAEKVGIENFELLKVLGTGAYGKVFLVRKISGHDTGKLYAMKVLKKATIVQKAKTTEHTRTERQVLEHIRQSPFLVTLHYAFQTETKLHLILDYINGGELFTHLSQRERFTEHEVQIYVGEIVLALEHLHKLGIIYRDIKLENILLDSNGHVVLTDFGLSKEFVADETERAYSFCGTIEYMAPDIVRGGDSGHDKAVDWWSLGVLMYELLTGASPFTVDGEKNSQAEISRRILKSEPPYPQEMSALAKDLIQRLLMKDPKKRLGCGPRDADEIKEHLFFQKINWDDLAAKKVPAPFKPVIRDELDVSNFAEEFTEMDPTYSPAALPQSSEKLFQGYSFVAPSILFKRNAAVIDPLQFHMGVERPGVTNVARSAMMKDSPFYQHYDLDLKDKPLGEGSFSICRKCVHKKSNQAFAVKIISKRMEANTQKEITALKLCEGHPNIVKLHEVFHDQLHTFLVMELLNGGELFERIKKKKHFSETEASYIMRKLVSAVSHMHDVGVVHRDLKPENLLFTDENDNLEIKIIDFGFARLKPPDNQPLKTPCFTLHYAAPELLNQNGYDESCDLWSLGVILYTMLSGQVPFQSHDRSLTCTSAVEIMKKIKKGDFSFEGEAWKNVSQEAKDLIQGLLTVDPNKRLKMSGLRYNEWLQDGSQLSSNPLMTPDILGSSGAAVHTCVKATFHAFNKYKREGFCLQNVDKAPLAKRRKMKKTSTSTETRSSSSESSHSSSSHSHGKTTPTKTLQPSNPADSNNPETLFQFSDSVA
Sequence of Mitogen-activated protein kinase 11 (Homo sapiens) (Q15759 whole entry): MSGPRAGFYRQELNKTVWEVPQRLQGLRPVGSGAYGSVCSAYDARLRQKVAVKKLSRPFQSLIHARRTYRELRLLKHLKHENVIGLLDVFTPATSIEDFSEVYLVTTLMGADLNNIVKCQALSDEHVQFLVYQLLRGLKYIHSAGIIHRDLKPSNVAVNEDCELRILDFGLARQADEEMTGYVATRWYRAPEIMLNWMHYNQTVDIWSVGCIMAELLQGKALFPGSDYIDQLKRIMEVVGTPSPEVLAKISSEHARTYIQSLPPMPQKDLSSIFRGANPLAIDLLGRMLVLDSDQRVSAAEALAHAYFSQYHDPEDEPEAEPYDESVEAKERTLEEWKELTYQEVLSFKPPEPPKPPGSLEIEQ
Sequence of Mitogen-activated protein kinase 1 (Homo sapiens) (P28482 whole entry): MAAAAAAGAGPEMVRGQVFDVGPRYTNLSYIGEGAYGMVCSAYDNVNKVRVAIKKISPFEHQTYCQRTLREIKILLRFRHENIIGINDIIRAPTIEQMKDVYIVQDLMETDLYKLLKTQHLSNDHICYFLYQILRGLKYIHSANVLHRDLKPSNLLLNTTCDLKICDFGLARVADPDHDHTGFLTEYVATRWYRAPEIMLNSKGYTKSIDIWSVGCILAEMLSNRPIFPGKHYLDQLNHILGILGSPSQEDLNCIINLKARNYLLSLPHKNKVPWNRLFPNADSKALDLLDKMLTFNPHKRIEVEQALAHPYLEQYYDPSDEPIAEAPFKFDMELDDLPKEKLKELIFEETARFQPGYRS
Sequence of Ribosomal protein S6 kinase beta-1 (P23443 whole entry, looked up): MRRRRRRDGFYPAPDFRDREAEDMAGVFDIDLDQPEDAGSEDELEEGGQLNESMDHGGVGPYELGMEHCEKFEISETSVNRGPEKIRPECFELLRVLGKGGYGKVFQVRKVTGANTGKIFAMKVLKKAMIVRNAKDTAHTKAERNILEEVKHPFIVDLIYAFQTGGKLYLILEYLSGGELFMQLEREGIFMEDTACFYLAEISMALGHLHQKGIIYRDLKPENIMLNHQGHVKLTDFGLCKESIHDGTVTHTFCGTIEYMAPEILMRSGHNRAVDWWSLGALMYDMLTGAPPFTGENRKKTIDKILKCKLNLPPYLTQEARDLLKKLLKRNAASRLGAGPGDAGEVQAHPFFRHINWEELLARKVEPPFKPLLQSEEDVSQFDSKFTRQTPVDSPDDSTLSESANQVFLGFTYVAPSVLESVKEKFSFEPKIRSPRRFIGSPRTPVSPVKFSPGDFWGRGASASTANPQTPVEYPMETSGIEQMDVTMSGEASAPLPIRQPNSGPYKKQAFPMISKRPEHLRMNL

SMILES | residual activity [1] [%] | residual activity [2] [%] | residual activity [3] [%] | residual activity [5] [%] | residual activity [6] [%] | residual activity [7] [%] | residual activity [8] [%] | residual activity [9] [%] | residual activity (Rattus norvegicus) [%] | residual activity [10] [%] | residual activity [12] [%] | residual activity [13] [%] | residual activity (Bos taurus) [%] | residual activity [16] [%] | residual activity [17] [%] | residual activity [18] [%] | level, % of control (Oryctolagus cuniculus [19]) [%] | residual activity [21] [%] | residual activity [22] [%] | further results
C[C@@H](N)[C@H]1CC[C@H](C(=O)Nc2ccncc2)CC1 [Y-27632] | 92 | 99 | 98 | 94 | 100 | 107 | 99 | 104 | 95 | 98 | 95 | 13 | 91 | 98 | 94 | 57 | 81 | 90 | 109 | inhibition [4]: 6%; IC50 [11]: 44 µM; residual activity [14]: 94%; IC50 [15]: 19 µM; level, % of control (Oryctolagus cuniculus [20]): 72%; residual activity (Oryctolagus cuniculus [23]): 103%
O=C(NOCC1CC1)c1ccc(F)c(F)c1Nc1ccc(I)cc1Cl | 83 | 104 | 99 | 100 | 100 | 119 | 98 | 71 | 89 | 96 | 98 | 107 | 105 | 102 | 107 | 118 | 117 | 89 | 111 | inhibition (Mus musculus): 50%; residual activity [24]: 99%
